Holding throughout (assay): relative viability (nuclei count vs DMSO), 5 days (fraction); higher = more cells survive
Compound in assay [1]: COC1=CC=C(C=C1)CN2C=CC3=C2C=C(C=C3)C(=O)NO + C[C@@H](Oc1cc(-c2cnn(C3CCNCC3)c2)cnc1N)c1c(Cl)ccc(F)c1Cl [Crizotinib] (partner 1 µM)
Put shortly:
(§1)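 Values are medians from duplicate plates. Each reflects relative viability, defined as the nuclei count of treated wells over that of vehicle wells. Lung cancer cell lines in 1536-well plates were pin-tool dosed one day after seeding with one drug alone or with a fixed anchor-drug dose plus five library-drug doses (not always all listed) in √10 steps, then fixed, stained and imaged at 4× after 5 days.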

Compound in assay [2]: COC1=CC=C(C=C1)CN2C=CC3=C2C=C(C=C3)C(=O)NO + Nc1nc2[nH]cc(CCc3ccc(C(=O)N[C@@H](CCC(=O)O)C(=O)O)cc3)c2c(=O)[nH]1 [Pemetrexed] (partner 0.2 µM)
Put shortly:
as §1

Compound in the assay “Veliparib + Alpelisib”: C[C@]1(c2nc3c(C(N)=O)cccc3[nH]2)CCCN1 [Veliparib] + Cc1nc(NC(=O)N2CCC[C@H]2C(N)=O)sc1-c1ccnc(C(C)(C)C(F)(F)F)c1 [Alpelisib] (partner 2 µM)
Put shortly:
as §1

Compound in the assay “Veliparib + Vorinostat”: C[C@]1(c2nc3c(C(N)=O)cccc3[nH]2)CCCN1 [Veliparib] + O=C(CCCCCCC(=O)Nc1ccccc1)NO [Vorinostat] (partner 1 µM)
Put shortly:
as §1

Take SW 1573: the relative viability in assay [1] (first compound 0.253 µM) stood at 0.908; in assay [1] (first compound 0.8 µM), 0.803; in assay [1] (first compound 2.53 µM), 0.755; in assay [1] (first compound 8 µM), 0.587; in assay [2] (first compound 0.253 µM) it was 0.906; in assay [2] (first compound 0.8 µM), 0.82. Further, the relative viability worked out at 0.853 in assay [2] (first compound 2.53 µM); 0.803 in assay [2] (first compound 8 µM); 0.803 with Veliparib + Alpelisib (first compound 0.02 µM); 0.867 with Veliparib + Alpelisib (first compound 0.06325 µM); 0.791 in the assay with Veliparib + Alpelisib (first compound 0.2 µM); 0.675 with Veliparib + Alpelisib (first compound 0.6325 µM). Besides, the relative viability with Veliparib + Alpelisib (first compound 2 µM) was 0.805; with Veliparib + Vorinostat (first compound 0.06325 µM), 0.596; with Veliparib + Vorinostat (first compound 0.2 µM), 0.67; with Veliparib + Vorinostat (first compound 0.6325 µM) it was 0.495; with Veliparib + Vorinostat (first compound 2 µM), 0.869.
